The source of these data is EPA's ToxRefDB 2.

Data set [1] deals with mouse. The conditions noted are these: Carcinogenicity, b6c3f1, Oral, Feed, dose end: 2 year, group: systemic.
The test system of data set [2] is mouse. The note with it: Subchronic oral toxicity in rodents, b6c3f1, Feed, dose end: 13 week, group: systemic.
Data set [3] deals with rat. The conditions noted are these: Carcinogenicity, fischer, Oral, Feed, dose end: 2 year, group: systemic, systemic / in life observation / clinical signs / urine.
For data set [4], the system named is rat. The conditions noted are these: Subchronic oral toxicity in rodents, fischer, Feed, dose end: 13 week, group: systemic.
In data set [5] the test system is mouse. The conditions noted are these: Multigenerational reproductive toxicity study, cd1, Oral, Feed, dose end: 2 generation.
Data set [6] has as its system dog. The note with it: Subchronic oral toxicity in nonrodent, beagle, Capsule, dose end: 13 week, group: systemic, systemic / clinical chemistry / albumin / albumin + systemic / clinical chemistry / protein / protein + systemic / in life observation / ….
The subject of data set [7] is rat. The note with it: Subchronic oral toxicity in rodents, wistar, Feed, dose end: 13 week, group: systemic, systemic / organ weight / spleen / absolute + systemic / organ weight / spleen / relative to body weight + systemic / pathology microscopic….
Data set [8] has as its system dog. The conditions noted are these: Chronic toxicity; beagle; Oral; Feed; dose end: 104 week; group: systemic; systemic / clinical chemistry / [other] / [other] + systemic / pathology microscopic / liver / pigmentation + systemic / pathology ….
Data set [9] concerns rat. The conditions noted are these: Chronic toxicity, other, Oral, Feed, dose end: 102 week, group: systemic.
For data set [10], the system named is rat. The note with it: Acute dermal toxicity, other, Topical, dose end: 28 day, group: systemic, systemic / pathology microscopic / thymus / necrosis.
The subject of data set [11] is mouse. The conditions noted are these: Carcinogenicity, cd1, Oral, Feed, dose end: 80 week, group: systemic.
Data set [12] relates to rat. The conditions noted are these: Combined chronic toxicity/carcinogenicity; sprague dawley; Oral; Feed; dose end: 24 month; group: systemic; systemic / in life observation / body weight / body weight.
The subject of data set [13] is dog. The conditions noted are these: Chronic toxicity, beagle, Oral, Capsule, dose end: 12 month, group: systemic.
Data set [14] relates to rat. The note with it: Multigenerational reproductive toxicity study, sprague dawley, Oral, Feed, dose end: 2 generation.
The test system of data set [15] is mouse. The conditions noted are these: Carcinogenicity, cd1, Oral, Feed, dose end: 24 month, group: systemic.
Data set [16] relates to rat. The note with it: Prenatal developmental toxicity study, sprague dawley, Oral, Gavage/Intubation, dose end: 20 GD.
The next data set concerns hamster. The note with it: Chronic toxicity, Oral, Feed, dose end: 24 month, group: systemic.
The subject of data set [17] is rat. The conditions noted are these: Subchronic oral toxicity in rodents, sprague dawley, Feed, dose end: 90 day, group: systemic.
Setting [18] is: systemic / in life observation / body weight / body weight + systemic / pathology microscopic / epididymis / atypia cellular + systemic / ….
The mark [19] stands for this setting: systemic / in life observation / clinical signs / urine, discoloration + systemic / pathology microscopic / adrenal gland / hyperplasia + ….
[20] abbreviates: discoloration + systemic / pathology microscopic / kidney / adenoma + systemic / ….
[21] abbreviates: systemic / in life observation / clinical signs / urine, discoloration.
Where [22] appears, read: group: offspring, systemic / in life observation / body weight / offspring (pup) weight.
Setting [23] is: group: parental, systemic / in life observation / food consumption / food consumption.
[24] abbreviates: group: reproductive, reproductive / offspring survival early / live fetuses / live fetuses + reproductive / reproductive performance / fertility / fertility.
The mark [25] stands for this setting: systemic / clinical chemistry / [other] / [other].
Setting [26] is: systemic / clinical chemistry / [other] / [other] + systemic / pathology microscopic / intestine small / pigmentation + systemic / pathology….
[27] abbreviates: systemic / pathology microscopic / stomach / ulcer + systemic / hematology / anemia / anemia - nos + systemic / hematology / hematocrit (hct….
The mark [28] stands for this setting: systemic / in life observation / body weight / body weight gain + systemic / organ weight / liver / relative to body weight.
Where [29] appears, read: systemic / in life observation / body weight / body weight gain + systemic / organ weight / liver / relative to body weight + systemic / ….
Where [30] appears, read: group: offspring, systemic / in life observation / body weight / offspring (pup) weight + systemic / organ weight / brain / absolute + systemic / organ weight….
The mark [31] stands for this setting: group: parental, systemic / organ weight / liver / relative to body weight + systemic / hematology / hematocrit (hct) / hematocrit (hct) + systemic / ….
Where [32] appears, read: group: parental, systemic / organ weight / liver / relative to body weight + systemic / in life observation / body weight / body weight + systemic / in life ….
[33] abbreviates: group: reproductive, reproductive / offspring survival early / litter size / litter size.
The mark [34] stands for this setting: systemic / in life observation / food consumption / food consumption.
[35] abbreviates: group: developmental, developmental / developmental malformation / bone / misaligned + developmental / developmental malformation / general / hemorrhage + ….
Where [36] appears, read: group: maternal, systemic / in life observation / body weight / body weight + systemic / in life observation / body weight / body weight gain + systemic / in….
Setting [37] is: systemic / in life observation / mortality / mortality + systemic / pathology microscopic / kidney / inflammation.
Where [38] appears, read: systemic / in life observation / mortality / mortality + systemic / pathology microscopic / kidney / inflammation + systemic / pathology ….
[39] abbreviates: systemic / in life observation / body weight / body weight gain + systemic / organ weight / heart / relative to body weight.

Bounds are passed on as bounds.

The term LOAEL denotes the lowest tested level that showed an adverse finding. As a reminder, the NOAEL is the highest dose or exposure tested at which no adverse effect was seen. On to `O=C1CN(/N=C/c2ccc([N+](=O)[O-])o2)C(=O)N1` [Nitrofurantoin], for which the lowest observed adverse effect level (LOAEL) in the data set with mouse [1] (setting [18]) was 570 mg/kg/day; with mouse [2] (systemic / in life observation / body weight / body weight + systemic / pathology microscopic / ovary / necrosis + systemic / pathology …), 750 mg/kg/day; in the data set with rat [3] (setting [20]), more than 60 mg/kg/day; in the data set on rat [4] (systemic / in life observation / body weight / body weight + systemic / pathology microscopic / testes / degeneration) it was 125 mg/kg/day; in the data set with mouse [5] (setting [22]), more than 213 mg/kg/day; in the data set with mouse [5] (setting [23]) it was more than 164 mg/kg/day. For the same compound, in the data set on mouse [5] (setting [24]), the LOAEL is more than 213 mg/kg/day. Besides, the no observed adverse effect level (NOAEL) in the data set on mouse [1] (setting [18]) was 300 mg/kg/day; in the data set with mouse [2] (systemic / in life observation / body weight / body weight + systemic / pathology microscopic / ovary / necrosis + systemic / in life …), 375 mg/kg/day; in the data set on rat [3] (setting [20]), not below 60 mg/kg/day; with rat [4] (systemic / in life observation / body weight / body weight + systemic / in life observation / clinical signs / urine, discoloration + …), 65 mg/kg/day; with mouse [5] (setting [22]) it was not below 213 mg/kg/day; in the data set on mouse [5] (setting [23]), not below 164 mg/kg/day. In addition, the NOAEL in the data set with mouse [5] (setting [24]) is not below 213 mg/kg/day. Further, the LEL was determined as 280 mg/kg/day in the data set with mouse [1] (setting [19]); 195 mg/kg/day in the data set with mouse [2] (systemic / pathology microscopic / testes / aspermatogenesis + systemic / pathology microscopic / testes / degeneration); 30 mg/kg/day with rat [3] (discoloration); 30 mg/kg/day in the data set with rat [4] (setting [21]); 99.2 mg/kg/day in the data set with mouse [5] (setting [22]); 164 mg/kg/day in the data set with mouse [5] (setting [23]). Also, the LEL in the data set with mouse [5] (setting [24]) turned out to be 213 mg/kg/day. Also, the NEL in the data set with mouse [1] (setting [19]) is less than 280 mg/kg/day; with mouse [2] (systemic / pathology microscopic / testes / aspermatogenesis + systemic / pathology microscopic / testes / degeneration + systemic / in life…) it was 90 mg/kg/day; with rat [3] (discoloration), less than 30 mg/kg/day; in the data set on rat [4] (setting [21]) it was less than 30 mg/kg/day; in the data set with mouse [5] (setting [22]), 43.8 mg/kg/day; in the data set on mouse [5] (setting [23]) it was 88.7 mg/kg/day. Further, the NEL in the data set with mouse [5] (setting [24]) came out at 99.2 mg/kg/day.

As for `Oc1cccc2cccnc12.Oc1cccc2cccnc12.[Cu]` [Copper-8-hydroxyquinoline (1:2)], the LEL with dog [6] stood at 50 mg/kg/day; with rat [7], 100 mg/kg/day; with dog [8] it was 25 mg/kg/day; in the data set with rat [9] (setting [25]), 0.25 mg/kg/day; with rat [10], 1000 mg/kg/day; in the data set on mouse [11] (systemic / pathology microscopic / stomach / ulcer + systemic / pathology microscopic / spleen / hematopoietic cell proliferation), 208 mg/kg/day. Further, the LOAEL in the data set on dog [6] was determined as 50 mg/kg/day; with rat [7] it was 100 mg/kg/day; in the data set with dog [8], 25 mg/kg/day; with rat [9] (setting [26]), 100 mg/kg/day; in the data set on rat [10], 1000 mg/kg/day; in the data set with mouse [11] (systemic / pathology microscopic / stomach / ulcer) it was 208 mg/kg/day. Besides, the NEL is 5 mg/kg/day with dog [6]; 30 mg/kg/day in the data set on rat [7]; 5 mg/kg/day in the data set with dog [8]; less than 0.25 mg/kg/day in the data set on rat [9] (setting [25]); 200 mg/kg/day in the data set on rat [10]; 57.1 mg/kg/day in the data set with mouse [11] (setting [27]). The NOAEL with dog [6] is 5 mg/kg/day; in the data set on rat [7], 30 mg/kg/day; in the data set on dog [8], 5 mg/kg/day; in the data set with rat [9] (setting [26]) it was 25 mg/kg/day; in the data set on rat [10], 200 mg/kg/day; in the data set with mouse [11] (setting [27]), 57.1 mg/kg/day.

On to `CCSC(=O)N(CC(C)C)CC(C)C` [Butylate], for which the LEL with rat [12] turned out to be 100 mg/kg/day; in the data set on dog [13] (setting [28]), 25 mg/kg/day; in the data set with rat [14] (setting [30]), 50 mg/kg/day; with rat [14] (setting [32]) it was 50 mg/kg/day; in the data set with rat [14] (setting [33]) it was 200 mg/kg/day; in the data set with mouse [15] (setting [34]), 20 mg/kg/day. The LEL with rat [16] (setting [35]) and with rat [16] (setting [36]) was 400 mg/kg/day in each case. Moreover, the LOAEL was 100 mg/kg/day in the data set on rat [12]; 25 mg/kg/day with dog [13] (setting [28]); 50 mg/kg/day with rat [14] (setting [30]); 50 mg/kg/day with rat [14] (setting [32]); more than 200 mg/kg/day in the data set with rat [14] (setting [33]); 80 mg/kg/day in the data set with mouse [15] (systemic / in life observation / body weight / body weight + systemic / pathology microscopic / kidney / amyloid deposition + systemic / …). Also, the lowest observed adverse effect level (LOAEL) with rat [16] (setting [35]) and with rat [16] (setting [36]) was 400 mg/kg/day each time. The NEL with rat [12] is 50 mg/kg/day; with dog [13] (setting [29]) it was 5 mg/kg/day; in the data set on rat [14] (setting [22]), 10 mg/kg/day; in the data set with rat [14] (setting [31]) it was 10 mg/kg/day; in the data set with rat [14] (setting [33]), 50 mg/kg/day; in the data set with mouse [15] (setting [34]), less than 20 mg/kg/day. Further, the NEL in the data set with rat [16] (setting [35]) and in the data set with rat [16] (setting [36]) was 40 mg/kg/day throughout. The NOAEL in the data set with rat [12] was 50 mg/kg/day; in the data set with dog [13] (setting [29]), 5 mg/kg/day; with rat [14] (setting [22]), 10 mg/kg/day; with rat [14] (setting [31]), 10 mg/kg/day; with rat [14] (setting [33]), not below 200 mg/kg/day; with mouse [15] (systemic / in life observation / food consumption / food consumption + systemic / in life observation / body weight / body weight + systemic…), 20 mg/kg/day. For the same compound, the NOAEL with rat [16] (setting [35]) and in the data set with rat [16] (setting [36]) was 40 mg/kg/day in each case.

Regarding `O=[N+]([O-])c1ccc(O)cc1C(F)(F)F` [3-Trifluoromethyl-4-nitrophenol], in the data set with hamster (setting [37]), the LOAEL is 24.9 mg/kg/day and the no observed adverse effect level (NOAEL) is less than 24.9 mg/kg/day. In the data set on hamster (setting [38]), the LEL amounted to 24.9 mg/kg/day and the NEL is less than 24.9 mg/kg/day. Also, in the data set on rat [17] (setting [39]), the LOAEL is 146 mg/kg/day, the NEL amounted to 25 mg/kg/day and the NOAEL stood at 81 mg/kg/day. Moreover, in the data set with rat [17] (systemic / organ weight / heart / relative to body weight), the LEL was 45 mg/kg/day.
